Reference: ChEMBL document CHEMBL5465560, “Selectivity Literature for EUbOPEN Chemogenomic Library” (2024)

Columns and labels:
[1] = target: T1, MAP kinase-activated protein kinase 5 (Homo sapiens) (UniProt Q8IW41); test: Selectivity interaction (KinomeScan (DiscoverX)) EUB0001079a MAPKAPK5; conditions: at 1 µM
T1 sequence (whole entry): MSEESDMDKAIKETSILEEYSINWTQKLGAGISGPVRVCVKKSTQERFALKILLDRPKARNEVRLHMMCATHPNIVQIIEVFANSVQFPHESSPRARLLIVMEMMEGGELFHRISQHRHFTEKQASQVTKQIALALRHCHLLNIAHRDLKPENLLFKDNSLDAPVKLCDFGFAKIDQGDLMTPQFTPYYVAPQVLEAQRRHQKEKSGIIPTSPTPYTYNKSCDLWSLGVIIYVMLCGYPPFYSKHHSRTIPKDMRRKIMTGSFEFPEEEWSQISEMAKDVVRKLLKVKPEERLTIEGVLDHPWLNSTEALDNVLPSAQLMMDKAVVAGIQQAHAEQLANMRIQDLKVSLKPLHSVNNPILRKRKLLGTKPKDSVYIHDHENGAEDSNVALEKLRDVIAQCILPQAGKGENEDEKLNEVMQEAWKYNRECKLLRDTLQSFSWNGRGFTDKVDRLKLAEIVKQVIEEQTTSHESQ

D(3) dopamine receptor = D(3) dopamine receptor (Homo sapiens, UniProt P35462); test: Selectivity interaction (GPCR panel (PDSP screen)) EUB0001079a DRD3; conditions: at 10 µM
Sequence of D(3) dopamine receptor (P35462 whole entry): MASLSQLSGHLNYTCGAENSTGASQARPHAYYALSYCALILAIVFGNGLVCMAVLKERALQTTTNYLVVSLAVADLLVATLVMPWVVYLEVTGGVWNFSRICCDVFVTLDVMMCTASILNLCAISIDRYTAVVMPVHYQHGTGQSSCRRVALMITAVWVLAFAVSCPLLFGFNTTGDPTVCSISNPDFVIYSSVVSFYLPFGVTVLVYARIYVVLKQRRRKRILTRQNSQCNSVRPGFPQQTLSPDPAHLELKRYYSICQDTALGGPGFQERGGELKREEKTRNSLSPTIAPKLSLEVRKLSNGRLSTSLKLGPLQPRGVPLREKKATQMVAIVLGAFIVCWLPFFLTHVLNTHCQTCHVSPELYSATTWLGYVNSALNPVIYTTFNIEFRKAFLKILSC

[2] = target: T2, Myosin light chain kinase family member 4 (Homo sapiens) (UniProt Q86YV6); conditions: at 10 µM
T2 sequence (whole entry): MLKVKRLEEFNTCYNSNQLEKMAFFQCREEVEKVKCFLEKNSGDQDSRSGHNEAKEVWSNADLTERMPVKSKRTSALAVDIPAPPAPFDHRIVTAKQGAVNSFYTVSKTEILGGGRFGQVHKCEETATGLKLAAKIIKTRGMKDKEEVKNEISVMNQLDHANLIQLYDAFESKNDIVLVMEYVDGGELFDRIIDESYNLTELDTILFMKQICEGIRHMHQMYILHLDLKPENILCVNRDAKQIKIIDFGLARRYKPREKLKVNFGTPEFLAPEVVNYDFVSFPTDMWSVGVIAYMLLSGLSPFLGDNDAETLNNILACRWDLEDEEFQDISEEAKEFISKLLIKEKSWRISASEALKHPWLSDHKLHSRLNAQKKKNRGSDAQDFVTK

[3] = target: Calcium/calmodulin-dependent protein kinase kinase 2 (Homo sapiens) (UniProt Q96RR4); test: Selectivity interaction (ActivX KiNativ screen (kinase selectivity in THP-1 cell lysates)) EUB0000639a CAMKK2; type: subcellular; conditions: lysate, at 0.04 µM
[4] = target: T3, Aurora kinase A (Homo sapiens) (UniProt O14965); test: Selectivity interaction (ActivX KiNativ screen (kinase selectivity in THP-1 cell lysates)) EUB0000639a STK6; type: subcellular; conditions: lysate
T3 sequence (whole entry): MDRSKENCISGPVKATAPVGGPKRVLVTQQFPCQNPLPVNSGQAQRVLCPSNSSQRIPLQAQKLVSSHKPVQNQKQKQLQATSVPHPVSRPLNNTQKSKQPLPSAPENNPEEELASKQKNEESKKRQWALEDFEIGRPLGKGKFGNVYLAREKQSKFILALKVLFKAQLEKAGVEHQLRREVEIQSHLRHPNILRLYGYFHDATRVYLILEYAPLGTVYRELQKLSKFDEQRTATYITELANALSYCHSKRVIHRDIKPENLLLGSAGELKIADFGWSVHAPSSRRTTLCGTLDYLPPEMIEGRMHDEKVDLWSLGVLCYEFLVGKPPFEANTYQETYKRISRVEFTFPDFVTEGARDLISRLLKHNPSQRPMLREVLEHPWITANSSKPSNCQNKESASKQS

[5] = target: Tyrosine-protein kinase Fyn (Homo sapiens) (UniProt P06241); test: Selectivity interaction (ActivX KiNativ screen (kinase selectivity in THP-1 cell lysates)) EUB0000639a FYN; type: subcellular; conditions: lysate, at 1 µM
Sequence of Tyrosine-protein kinase Fyn (Homo sapiens) (P06241 2-537 limits assumed): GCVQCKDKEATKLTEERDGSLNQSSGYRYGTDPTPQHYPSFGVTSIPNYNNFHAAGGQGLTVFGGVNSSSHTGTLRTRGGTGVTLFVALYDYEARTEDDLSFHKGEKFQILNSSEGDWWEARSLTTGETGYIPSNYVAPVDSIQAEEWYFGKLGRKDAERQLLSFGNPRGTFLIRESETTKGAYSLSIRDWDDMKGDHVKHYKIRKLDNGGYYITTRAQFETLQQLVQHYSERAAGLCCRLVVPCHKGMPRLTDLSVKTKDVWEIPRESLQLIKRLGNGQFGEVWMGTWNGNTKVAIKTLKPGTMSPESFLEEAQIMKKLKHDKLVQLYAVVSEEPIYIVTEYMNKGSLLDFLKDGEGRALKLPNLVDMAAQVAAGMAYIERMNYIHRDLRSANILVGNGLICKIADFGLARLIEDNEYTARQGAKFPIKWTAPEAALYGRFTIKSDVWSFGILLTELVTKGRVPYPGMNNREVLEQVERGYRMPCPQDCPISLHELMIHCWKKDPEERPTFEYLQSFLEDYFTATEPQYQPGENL

D(1A) dopamine receptor = D(1A) dopamine receptor (Homo sapiens, UniProt P21728); test: Selectivity interaction (Panel of non-epigenetic targets (kinases, GPCRs, ion channels, and transporters, Eurofins) ) EUB0000271b DRD1; conditions: at 1 µM
Sequence of D(1A) dopamine receptor (P21728 whole entry): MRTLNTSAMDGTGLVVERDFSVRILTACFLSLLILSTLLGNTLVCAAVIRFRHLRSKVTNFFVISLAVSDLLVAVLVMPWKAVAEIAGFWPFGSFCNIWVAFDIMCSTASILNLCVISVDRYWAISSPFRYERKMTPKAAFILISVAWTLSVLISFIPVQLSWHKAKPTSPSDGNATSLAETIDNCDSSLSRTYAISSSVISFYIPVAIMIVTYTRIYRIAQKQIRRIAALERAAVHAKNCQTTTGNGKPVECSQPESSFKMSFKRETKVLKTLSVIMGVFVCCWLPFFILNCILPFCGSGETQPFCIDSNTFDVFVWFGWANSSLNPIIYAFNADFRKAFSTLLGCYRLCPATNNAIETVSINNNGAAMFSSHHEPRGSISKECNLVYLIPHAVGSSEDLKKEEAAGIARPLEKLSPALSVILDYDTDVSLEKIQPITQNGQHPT

[6] = target: Vascular endothelial growth factor receptor 2 (Homo sapiens, UniProt P35968); test: Selectivity interaction (KinomeScan (DiscoverX)) EUB0000595a KDR; conditions: at 10 µM
Sequence of Vascular endothelial growth factor receptor 2 (P35968 whole entry): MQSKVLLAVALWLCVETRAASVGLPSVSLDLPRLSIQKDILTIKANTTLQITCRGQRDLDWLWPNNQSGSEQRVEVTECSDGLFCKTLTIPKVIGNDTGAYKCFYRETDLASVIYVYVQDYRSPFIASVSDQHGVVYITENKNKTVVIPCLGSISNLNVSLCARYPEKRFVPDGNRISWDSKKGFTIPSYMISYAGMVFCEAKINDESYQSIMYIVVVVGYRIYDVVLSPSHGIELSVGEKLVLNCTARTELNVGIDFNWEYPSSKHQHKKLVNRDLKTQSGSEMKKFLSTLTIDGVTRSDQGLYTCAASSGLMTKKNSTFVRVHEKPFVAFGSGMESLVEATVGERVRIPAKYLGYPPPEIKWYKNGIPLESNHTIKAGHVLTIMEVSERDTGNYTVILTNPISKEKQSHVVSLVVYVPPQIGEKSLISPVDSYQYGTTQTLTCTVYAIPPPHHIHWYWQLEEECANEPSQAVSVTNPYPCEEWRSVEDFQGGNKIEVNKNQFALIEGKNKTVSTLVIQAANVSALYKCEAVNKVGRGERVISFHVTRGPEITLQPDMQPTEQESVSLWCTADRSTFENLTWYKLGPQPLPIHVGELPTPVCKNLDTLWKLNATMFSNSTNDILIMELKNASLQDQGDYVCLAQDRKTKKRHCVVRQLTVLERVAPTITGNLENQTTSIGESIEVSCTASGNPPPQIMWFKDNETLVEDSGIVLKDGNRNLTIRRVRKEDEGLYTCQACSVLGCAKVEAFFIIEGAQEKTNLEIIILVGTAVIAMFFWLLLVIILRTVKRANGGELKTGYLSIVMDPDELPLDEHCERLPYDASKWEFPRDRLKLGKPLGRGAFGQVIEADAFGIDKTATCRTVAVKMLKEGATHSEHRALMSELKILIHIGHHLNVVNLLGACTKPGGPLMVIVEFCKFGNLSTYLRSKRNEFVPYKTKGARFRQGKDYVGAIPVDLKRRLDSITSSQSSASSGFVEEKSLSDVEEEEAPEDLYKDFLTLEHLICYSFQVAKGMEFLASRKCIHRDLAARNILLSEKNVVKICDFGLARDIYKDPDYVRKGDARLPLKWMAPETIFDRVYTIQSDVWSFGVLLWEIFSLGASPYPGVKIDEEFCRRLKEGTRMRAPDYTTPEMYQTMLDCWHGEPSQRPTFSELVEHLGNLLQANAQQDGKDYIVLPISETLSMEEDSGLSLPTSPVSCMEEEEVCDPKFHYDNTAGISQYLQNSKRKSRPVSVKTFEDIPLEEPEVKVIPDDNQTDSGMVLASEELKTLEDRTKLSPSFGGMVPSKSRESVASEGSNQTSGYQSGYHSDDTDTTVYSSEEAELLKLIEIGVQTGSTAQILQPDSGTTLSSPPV

[7] = target: Tyrosine-protein kinase ABL2 (Homo sapiens, UniProt P42684); test: Selectivity interaction (KinomeScan (DiscoverX)) EUB0000045b ABL2
Sequence of Tyrosine-protein kinase ABL2 (P42684 whole entry): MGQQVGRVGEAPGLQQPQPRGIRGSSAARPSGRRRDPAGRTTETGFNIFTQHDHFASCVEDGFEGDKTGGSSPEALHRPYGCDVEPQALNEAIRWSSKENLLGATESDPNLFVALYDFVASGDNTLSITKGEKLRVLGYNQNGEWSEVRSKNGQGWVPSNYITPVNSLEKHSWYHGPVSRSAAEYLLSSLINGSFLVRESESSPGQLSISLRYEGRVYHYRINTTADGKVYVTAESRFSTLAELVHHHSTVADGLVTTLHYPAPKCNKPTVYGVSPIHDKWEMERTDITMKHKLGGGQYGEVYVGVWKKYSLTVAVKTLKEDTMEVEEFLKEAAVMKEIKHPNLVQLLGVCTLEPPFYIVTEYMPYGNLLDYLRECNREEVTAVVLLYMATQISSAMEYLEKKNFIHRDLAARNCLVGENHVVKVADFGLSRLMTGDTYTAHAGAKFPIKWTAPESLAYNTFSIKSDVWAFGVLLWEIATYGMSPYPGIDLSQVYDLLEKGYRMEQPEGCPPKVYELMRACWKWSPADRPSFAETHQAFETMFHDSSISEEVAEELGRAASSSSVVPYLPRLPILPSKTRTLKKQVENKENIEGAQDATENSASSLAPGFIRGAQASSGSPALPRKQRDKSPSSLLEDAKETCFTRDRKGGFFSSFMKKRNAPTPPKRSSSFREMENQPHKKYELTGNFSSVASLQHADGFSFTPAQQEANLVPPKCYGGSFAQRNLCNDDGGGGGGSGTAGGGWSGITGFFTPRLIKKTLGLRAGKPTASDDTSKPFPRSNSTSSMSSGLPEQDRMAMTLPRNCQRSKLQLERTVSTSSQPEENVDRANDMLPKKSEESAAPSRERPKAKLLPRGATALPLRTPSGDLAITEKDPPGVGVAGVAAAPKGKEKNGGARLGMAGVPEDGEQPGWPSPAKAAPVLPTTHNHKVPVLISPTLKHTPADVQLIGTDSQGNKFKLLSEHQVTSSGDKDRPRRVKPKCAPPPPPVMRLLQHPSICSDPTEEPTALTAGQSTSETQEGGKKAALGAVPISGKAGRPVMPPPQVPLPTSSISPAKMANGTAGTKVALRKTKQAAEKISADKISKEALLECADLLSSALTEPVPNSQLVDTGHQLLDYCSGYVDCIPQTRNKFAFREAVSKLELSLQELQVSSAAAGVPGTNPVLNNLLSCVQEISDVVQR

[8] = target: Ribosomal protein S6 kinase alpha-2 (Homo sapiens) (UniProt Q15349); test: Selectivity interaction (Kinase screening (Nanosyn)) EUB0000604a RPS6KA2
Sequence of Ribosomal protein S6 kinase alpha-2 (Homo sapiens) (Q15349 whole entry): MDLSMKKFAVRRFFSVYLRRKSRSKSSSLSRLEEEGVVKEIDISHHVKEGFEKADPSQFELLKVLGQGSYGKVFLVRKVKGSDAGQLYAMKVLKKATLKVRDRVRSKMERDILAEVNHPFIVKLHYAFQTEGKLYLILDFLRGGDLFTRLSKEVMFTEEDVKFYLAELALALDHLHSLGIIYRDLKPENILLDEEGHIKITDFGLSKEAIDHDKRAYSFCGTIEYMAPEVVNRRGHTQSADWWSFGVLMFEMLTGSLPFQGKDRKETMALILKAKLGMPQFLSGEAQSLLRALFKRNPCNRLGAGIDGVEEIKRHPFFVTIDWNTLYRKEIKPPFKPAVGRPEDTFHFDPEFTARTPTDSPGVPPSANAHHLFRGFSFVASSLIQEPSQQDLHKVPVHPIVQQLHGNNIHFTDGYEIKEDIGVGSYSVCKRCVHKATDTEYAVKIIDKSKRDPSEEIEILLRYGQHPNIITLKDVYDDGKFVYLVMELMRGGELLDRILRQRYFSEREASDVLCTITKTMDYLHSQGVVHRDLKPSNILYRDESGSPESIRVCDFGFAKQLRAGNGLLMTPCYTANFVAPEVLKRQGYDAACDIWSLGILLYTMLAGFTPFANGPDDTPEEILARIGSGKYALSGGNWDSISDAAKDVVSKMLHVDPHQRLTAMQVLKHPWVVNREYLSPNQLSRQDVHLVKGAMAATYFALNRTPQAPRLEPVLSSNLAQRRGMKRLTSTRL

[9] = target: T4, Tyrosine-protein kinase receptor TYRO3 (Homo sapiens) (UniProt Q06418); test: Selectivity interaction (KinomeScan (DiscoverX)) EUB0001619a TYRO3; conditions: at 1 µM
T4 sequence (whole entry): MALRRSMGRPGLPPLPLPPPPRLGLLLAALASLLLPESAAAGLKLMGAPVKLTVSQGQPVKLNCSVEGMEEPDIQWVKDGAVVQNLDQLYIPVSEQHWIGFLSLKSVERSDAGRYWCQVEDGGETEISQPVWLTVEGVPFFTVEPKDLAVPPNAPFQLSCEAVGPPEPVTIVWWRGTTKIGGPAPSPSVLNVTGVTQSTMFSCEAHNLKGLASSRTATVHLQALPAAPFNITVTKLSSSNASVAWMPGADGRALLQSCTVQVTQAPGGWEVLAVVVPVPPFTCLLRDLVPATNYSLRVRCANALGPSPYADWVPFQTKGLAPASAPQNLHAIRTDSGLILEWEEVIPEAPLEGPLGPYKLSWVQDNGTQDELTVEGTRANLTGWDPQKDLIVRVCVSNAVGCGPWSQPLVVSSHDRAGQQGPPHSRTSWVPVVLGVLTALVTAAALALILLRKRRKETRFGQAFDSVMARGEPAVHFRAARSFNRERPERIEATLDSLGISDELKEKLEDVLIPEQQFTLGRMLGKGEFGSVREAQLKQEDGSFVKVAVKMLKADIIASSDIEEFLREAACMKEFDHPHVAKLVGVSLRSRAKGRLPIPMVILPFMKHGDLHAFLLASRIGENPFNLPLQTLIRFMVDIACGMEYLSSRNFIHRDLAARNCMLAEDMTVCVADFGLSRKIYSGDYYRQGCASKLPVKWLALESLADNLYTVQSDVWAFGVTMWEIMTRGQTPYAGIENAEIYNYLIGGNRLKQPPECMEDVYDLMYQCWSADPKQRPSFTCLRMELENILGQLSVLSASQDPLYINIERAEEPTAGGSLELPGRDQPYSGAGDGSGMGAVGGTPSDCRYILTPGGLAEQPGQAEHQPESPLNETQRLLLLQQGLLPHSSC

Work on `Nc1cnc(N2CCc3cc(S(=O)(=O)Nc4c(F)cc(Cl)cc4F)cc(N4CCCC4=O)c32)nc1` [TP-020n] yielded a % of control [1] of 92% and a % of inhibition (D(3) dopamine receptor) of 7.41%.
`Cc1cc([C@@H](C)Nc2ccccc2C(=O)O)c2nc(N3CCOCC3)cc(=O)n2c1` [AZD-6482] was tested, and the % of control [2] was 98%.
Work on `CC[C@@H]1[C@H](F)C(=O)N[C@@H]1COc1nccc2cc(C(N)=O)c(OC)cc12` [ZIMLOVISERTIB] yielded a % of inhibition [3] of -13%, a % of inhibition ([4]; at 0.01 µM) of -0.7% and a % of inhibition ([4]; at 0.04 µM) of -2.4%. The % of inhibition ([4]; at 0.2 µM) was 2.8%, the % of inhibition ([4]; at 1 µM) was 26.7% and the % of inhibition ([4]; at 5 µM) was 59.9%. It also gave a % of inhibition [5] of -11%.
For `Cc1cc(C)cc([C@@H]2c3cc(C)ccc3NC(=O)CN2C(=O)c2ccc(Br)s2)c1`, the % of inhibition (D(1A) dopamine receptor) was 9%.
`COCC(=O)NC/C=C/c1ccc2ncnc(Nc3ccc(Oc4ccc(C)nc4)c(C)c3)c2c1` [CP-724714] showed a % of control [6] of 100%.
`C=CC(=O)Nc1cc(-n2c(=O)ccc3cnc4ccc(-c5ccc(NS(C)(=O)=O)cc5)cc4c32)ccc1C` was tested, and the % of control ([7]; at 1 µM) was 100% and the % of control ([7]; at 10 µM) was 100%.
For `Cc1cnc(Nc2ccc(F)cc2Cl)nc1-c1c[nH]c(C(=O)N[C@H](CO)c2cccc(Cl)c2)c1`, the % of inhibition [8] was 7%.
`N#Cc1cccc(-c2c[nH]c3ncnc(N4CCOCC4)c23)c1` gave a % of control [9] of 100%.
